Several values for one entry are separate records, joined by “and”; a condition that tells them apart may be missing. Equal entries are not always repeated. HELM strings list units from the 5' end as sugar, base in round brackets, then linkage (d deoxyribose, r ribose, m 2'-O-methyl, p phosphodiester). Methylation of C is not given here. [moe] = 2'-O-(2-methoxyethyl) (MOE); [cEt] = constrained ethyl (cEt); [sp] = phosphorothioate linkage
Molecular target: HBV
Conditions: ASO

| Substance | target mRNA inhibition (HepG2, 0.07 µM) | also measured |
| --- | --- | --- |
| RNA1{[cEt](A)[sp].d(G)[sp].[cEt](G)[sp].d(T)[sp].[cEt](G)[sp].d(A)[sp].d(A)[sp].d(G)[sp].d(C)[sp].d(G)[sp].d(A)[sp].d(A)[sp].d(G)[sp].d(T)[sp].[moe](G)[sp].[moe](C)}$$$$V2.0 |  | target mRNA inhibition (HepG2, 0.009375 µM): 14%; target mRNA inhibition (HepG2, 0.01875 µM): 21%; target mRNA inhibition (HepG2, 0.0375 µM): 42%; target mRNA inhibition (HepG2, 0.075 µM): 61%; target mRNA inhibition (HepG2, 0.15 µM): 80%; target mRNA inhibition (HepG2, 0.3 µM): 92% |
| RNA1{[moe](A)[sp].[cEt](A)[sp].[cEt](A)[sp].d(T)[sp].d(G)[sp].d(G)[sp].d(C)[sp].d(A)[sp].d(C)[sp].d(T)[sp].d(A)[sp].d(G)[sp].d(T)[sp].[cEt](A)[sp].[cEt](A)[sp].[moe](A)}$$$$V2.0 | 51% |  |
| RNA1{[moe](A)[sp].[cEt](A)[sp].[cEt](G)[sp].d(G)[sp].d(C)[sp].d(A)[sp].d(C)[sp].d(A)[sp].d(G)[sp].d(C)[sp].d(T)[sp].d(T)[sp].d(G)[sp].[cEt](G)[sp].[cEt](A)[sp].[moe](G)}$$$$V2.0 | 32% and 15% |  |
| RNA1{[moe](A)[sp].[cEt](A)[sp].[cEt](G)[sp].d(T)[sp].d(C)[sp].d(C)[sp].d(A)[sp].d(C)[sp].d(C)[sp].d(A)[sp].d(C)[sp].d(G)[sp].d(A)[sp].[cEt](G)[sp].[cEt](T)[sp].[moe](C)}$$$$V2.0 | 59% and 46% |  |
| RNA1{[moe](A)[sp].[cEt](C)[sp].[cEt](C)[sp].d(A)[sp].d(C)[sp].d(A)[sp].d(T)[sp].d(C)[sp].d(A)[sp].d(T)[sp].d(C)[sp].d(C)[sp].d(A)[sp].[cEt](T)[sp].[cEt](A)[sp].[moe](T)}$$$$V2.0 | 35% and 54% |  |
| RNA1{[moe](A)[sp].[cEt](C)[sp].[cEt](C)[sp].d(A)[sp].d(C)[sp].d(T)[sp].d(G)[sp].d(A)[sp].d(A)[sp].d(C)[sp].d(A)[sp].d(A)[sp].d(A)[sp].[cEt](T)[sp].[cEt](G)[sp].[moe](G)}$$$$V2.0 | 70% and 57% |  |
| RNA1{[moe](A)[sp].[cEt](C)[sp].[cEt](T)[sp].d(G)[sp].d(A)[sp].d(A)[sp].d(C)[sp].d(A)[sp].d(A)[sp].d(A)[sp].d(T)[sp].d(G)[sp].d(G)[sp].[cEt](C)[sp].[cEt](A)[sp].[moe](C)}$$$$V2.0 | 67% and 64% |  |
| RNA1{[moe](A)[sp].[cEt](C)[sp].[cEt](T)[sp].d(G)[sp].d(G)[sp].d(A)[sp].d(G)[sp].d(C)[sp].d(C)[sp].d(A)[sp].d(C)[sp].d(C)[sp].d(A)[sp].[cEt](G)[sp].[cEt](C)[sp].[moe](A)}$$$$V2.0 | 67% and 75% |  |
| RNA1{[moe](A)[sp].[cEt](G)[sp].[cEt](G)[sp].d(C)[sp].d(A)[sp].d(T)[sp].d(A)[sp].d(G)[sp].d(C)[sp].d(A)[sp].d(G)[sp].d(C)[sp].d(A)[sp].[cEt](G)[sp].[cEt](G)[sp].[moe](A)}$$$$V2.0 | 72% and 70% |  |
| RNA1{[moe](A)[sp].[cEt](G)[sp].d(A)[sp].d(A)[sp].d(G)[sp].d(T)[sp].d(C)[sp].d(C)[sp].d(A)[sp].d(C)[sp].d(C)[sp].d(A)[sp].[cEt](C)[sp].[moe](G)[sp].[cEt](A)[sp].[moe](G)}$$$$V2.0 | 55% and 37% |  |
| RNA1{[moe](A)[sp].[cEt](G)[sp].d(G)[sp].d(T)[sp].d(G)[sp].d(A)[sp].d(A)[sp].d(G)[sp].d(C)[sp].d(G)[sp].d(A)[sp].d(A)[sp].[cEt](G)[sp].[moe](T)[sp].[cEt](G)[sp].[moe](C)}$$$$V2.0 | 78% and 85% | target mRNA inhibition (HepG2, 0.0092593 µM): 12%; target mRNA inhibition (HepG2, 0.0277778 µM): 36%; target mRNA inhibition (HepG2, 0.0833333 µM): 67%; target mRNA inhibition (HepG2, 0.25 µM): 80% |
| RNA1{[moe](A)[sp].[moe](A)[sp].[moe](C)[sp].[moe](C)[sp].[moe](A)[sp].[moe](C)[sp].d(T)[sp].d(G)[sp].d(A)[sp].d(A)[sp].d(C)[sp].d(A)[sp].d(A)[sp].d(A)[sp].d(T)[sp].[moe](G)[sp].[moe](G)}$$$$V2.0 | 60% and 45% |  |
| RNA1{[moe](A)[sp].[moe](A)[sp].[moe](C)[sp].[moe](T)[sp].[moe](G)[sp].[moe](G)[sp].d(A)[sp].d(G)[sp].d(C)[sp].d(C)[sp].d(A)[sp].d(C)[sp].d(C)[sp].d(A)[sp].d(G)[sp].[moe](C)[sp].[moe](A)}$$$$V2.0 | 70% and 50% |  |
| RNA1{[moe](A)[sp].[moe](A)[sp].[moe](C)[sp].[moe](T)[sp].[moe](G)[sp].d(G)[sp].d(A)[sp].d(G)[sp].d(C)[sp].d(C)[sp].d(A)[sp].d(C)[sp].d(C)[sp].d(A)[sp].[moe](G)[sp].[moe](C)[sp].[moe](A)}$$$$V2.0 | 31% and 37% |  |
| RNA1{[moe](A)[sp].[moe](A)[sp].[moe](C)[sp].[moe](T)[sp].d(G)[sp].d(G)[sp].d(A)[sp].d(G)[sp].d(C)[sp].d(C)[sp].d(A)[sp].d(C)[sp].d(C)[sp].[moe](A)[sp].[moe](G)[sp].[moe](C)[sp].[moe](A)}$$$$V2.0 | 64% and 58% |  |
| RNA1{[moe](A)[sp].[moe](A)[sp].[moe](C)[sp].d(C)[sp].d(A)[sp].d(C)[sp].d(T)[sp].d(G)[sp].d(A)[sp].d(A)[sp].d(C)[sp].d(A)[sp].[moe](A)[sp].[moe](A)[sp].[moe](T)[sp].[moe](G)[sp].[moe](G)}$$$$V2.0 | 57% and 51% |  |
| RNA1{[moe](A)[sp].[moe](A)[sp].[moe](C)[sp].d(C)[sp].d(A)[sp].d(C)[sp].d(T)[sp].d(G)[sp].d(A)[sp].d(A)[sp].d(C)[sp].d(A)[sp].[moe](A)[sp].[moe](A)[sp].[moe](T)[sp].[moe](G)}$$$$V2.0 | 20% and 37% |  |
| RNA1{[moe](A)[sp].[moe](A)[sp].[moe](C)[sp].d(T)[sp].d(G)[sp].d(G)[sp].d(A)[sp].d(G)[sp].d(C)[sp].d(C)[sp].d(A)[sp].d(C)[sp].[moe](C)[sp].[moe](A)[sp].[moe](G)[sp].[moe](C)[sp].[moe](A)}$$$$V2.0 | 69% and 58% |  |
| RNA1{[moe](A)[sp].[moe](A)[sp].[moe](C)[sp].d(T)[sp].d(G)[sp].d(G)[sp].d(A)[sp].d(G)[sp].d(C)[sp].d(C)[sp].d(A)[sp].d(C)[sp].[moe](C)[sp].[moe](A)[sp].[moe](G)[sp].[moe](C)}$$$$V2.0 | 59% and 56% |  |
| RNA1{[moe](A)[sp].[moe](A)[sp].[moe](G)[sp].[moe](C)[sp].[cEt](G)[sp].[cEt](A)[sp].d(A)[sp].d(G)[sp].d(T)[sp].d(G)[sp].d(C)[sp].d(A)[sp].d(C)[sp].[moe](A)[sp].[moe](C)[sp].[moe](G)[sp].[moe](G)}$$$$V2.0 |  | target mRNA inhibition (HepG2, 0.009375 µM): 26%; target mRNA inhibition (HepG2, 0.01875 µM): 29%; target mRNA inhibition (HepG2, 0.0375 µM): 30%; target mRNA inhibition (HepG2, 0.075 µM): 64%; target mRNA inhibition (HepG2, 0.15 µM): 80%; target mRNA inhibition (HepG2, 0.3 µM): 91% |
| RNA1{[moe](A)[sp].[moe](A)[sp].[moe](G)[sp].[moe](C)[sp].d(G)[sp].d(A)[sp].d(A)[sp].d(G)[sp].d(T)[sp].d(G)[sp].d(C)[sp].d(A)[sp].d(C)[sp].[moe](A)[sp].[moe](C)[sp].[moe](G)}$$$$V2.0 | 68% and 62% |  |
| RNA1{[moe](A)[sp].[moe](A)[sp].[moe](G)[sp].d(A)[sp].d(T)[sp].d(G)[sp].d(A)[sp].d(G)[sp].d(G)[sp].d(C)[sp].d(A)[sp].d(T)[sp].[moe](A)[sp].[moe](G)[sp].[moe](C)[sp].[moe](A)[sp].[moe](G)}$$$$V2.0 | 69% and 60% |  |
| RNA1{[moe](A)[sp].[moe](A)[sp].[moe](T)[sp].[moe](T)[sp].[moe](T)[sp].d(A)[sp].d(T)[sp].d(G)[sp].d(C)[sp].d(C)[sp].d(T)[sp].d(A)[sp].d(C)[sp].d(A)[sp].[moe](G)[sp].[moe](C)}$$$$V2.0 | 39% and 23% |  |
| RNA1{[moe](A)[sp].[moe](A)[sp].[moe](T)[sp].d(T)[sp].d(T)[sp].d(A)[sp].d(T)[sp].d(G)[sp].d(C)[sp].d(C)[sp].d(T)[sp].d(A)[sp].[moe](C)[sp].[moe](A)[sp].[moe](G)[sp].[moe](C)}$$$$V2.0 | 52% and 49% |  |
| RNA1{[moe](A)[sp].[moe](A)[sp].d(G)[sp].d(C)[sp].d(G)[sp].d(A)[sp].d(A)[sp].d(G)[sp].d(T)[sp].d(G)[sp].d(C)[sp].[moe](A)[sp].[moe](C)[sp].[moe](A)[sp].[moe](C)[sp].[moe](G)[sp].[moe](G)}$$$$V2.0 | 88% and 80% | target mRNA inhibition (HepG2, 0.0092593 µM): 11%; target mRNA inhibition (HepG2, 0.0277778 µM): 27%; target mRNA inhibition (HepG2, 0.0833333 µM): 58%; target mRNA inhibition (HepG2, 0.25 µM): 80% |
| RNA1{[moe](A)[sp].[moe](C)[sp].[moe](C)[sp].[moe](A)[sp].[moe](C)[sp].d(T)[sp].d(G)[sp].d(A)[sp].d(A)[sp].d(C)[sp].d(A)[sp].d(A)[sp].d(A)[sp].d(T)[sp].[moe](G)[sp].[moe](G)[sp].[moe](C)}$$$$V2.0 | 59% and 61% |  |
| RNA1{[moe](A)[sp].[moe](C)[sp].[moe](C)[sp].[moe](A)[sp].d(C)[sp].d(T)[sp].d(G)[sp].d(A)[sp].d(A)[sp].d(C)[sp].d(A)[sp].d(A)[sp].d(A)[sp].[moe](T)[sp].[moe](G)[sp].[moe](G)}$$$$V2.0 | 54% and 65% |  |
| RNA1{[moe](A)[sp].[moe](C)[sp].[moe](C)[sp].d(A)[sp].d(A)[sp].d(T)[sp].d(T)[sp].d(T)[sp].d(A)[sp].d(T)[sp].d(G)[sp].d(C)[sp].d(C)[sp].[cEt](T)[sp].[cEt](A)[sp].[cEt](C)}$$$$V2.0 | 24% and 28% |  |
| RNA1{[moe](A)[sp].[moe](C)[sp].[moe](G)[sp].[moe](G)[sp].[moe](G)[sp].[moe](C)[sp].d(A)[sp].d(A)[sp].d(C)[sp].d(A)[sp].d(T)[sp].d(A)[sp].d(C)[sp].d(C)[sp].d(T)[sp].[moe](T)[sp].[moe](G)}$$$$V2.0 | 0% |  |
| RNA1{[moe](A)[sp].[moe](C)[sp].[moe](G)[sp].[moe](G)[sp].[moe](G)[sp].d(C)[sp].d(A)[sp].d(A)[sp].d(C)[sp].d(A)[sp].d(T)[sp].d(A)[sp].d(C)[sp].d(C)[sp].[moe](T)[sp].[moe](T)[sp].[moe](G)}$$$$V2.0 | 48% and 45% |  |
